Data: patent US20260207563A1, “UREA COMPOUNDS AS ACTIVATORS OF POTASSIUM CHANNELS KV7.2/7.3 USEFUL IN THE TREATMENT OF CNS AND PNS DISORDERS” (ANGELINI PHARMA S.P.A., priority 2022, published 2026)

Target: T1, heteromeric KV7.2/KV7.3 channels (KCNQ2, KCNQ3) (Homo sapiens, UniProt O43525+O43526)
T1 construct: expressed in transfected cells; host or cells: CHO-K1
Assay: Automated patch-clamp (Sophion Qube 384) potency assay against KV7.2/KV7.3 channels
Type: cell-based
Details: CHO-K1/Kv7.2/Kv7.3 cells; for EC50: EC50 from concentration-response of shift in Vhalf, 10 concentrations up to 30 μM, read-out: Kv7.2/7.3 EC50; for Kv7.2/7.3 ΔV1/2: maximal shift in the Vhalf from the top of the curve
From the text: Assessment of In Vitro Potency Against KV7.2/KV7.3 Channels
An automated patch-clamp assay on the Sophion Qube 384 was developed for potency testing to identify small molecule activators of heteromeric KV7.2/KV7.3 channels (KCNQ2, Uniprot ID 043526; KCNQ3, Uniprot 043525).
The cell line used was a stably transfected CHO-K1 cell line with constitutive KV7.2/KV7.3 expression.
CHO-K1/Kv7.2/Kv7.3 cells were maintained in the following culture media: • DMEM/F-12 with GlutaMAX™ (Gibco 31331-028), • 10% Fetal clone 2 serum (Perbio Science SH30066.03), • 1 mg/ml Geneticin™ selective antibiotic (G418, Invitrogen 1013027), and • 5 μg/ml BlasticidinS HCl (Invivogen Ant-bl-5).
On the day of the experiment, cells were resuspended in serum free media, counted and diluted to a final concentration of 3.5×10^6 cells per ml of media.
Cells were then placed onto the Sophion Qube 384 and rested for a minimum of 1 hour.
The following solutions were used for recording: • extracellular solution (in mM): 145 NaCl, 4 KCl, 1 MgCl2, 2 CaCl2), 10 HEPES, 10 glucose, pH 7.4, 315-320 mOsm. • intracellular solution (in mM): 120 KCl, 5.74 CaCl2), 1.75 MgCl2, 10 EGTA, 10 HEPES, 5 Na2ATP, pH 7.2, adjusted to 315 mOsm with sucrose.
After establishing the whole-cell configuration, cells were held at −80 mV throughout the experiment. A current-voltage (I-V) protocol stepping from −100 to +20 mV for 1 second was applied to measure Kv7.2/Kv7.3 currents, each step was followed by a 200 ms pulse to 0 mV to measure the tail currents. From the I-V protocol a Boltzmann fit was applied to generate activation curves. Data were sampled at 25 kHz and filtered at 5 kHz (Bessel). Data were produced using multihole QChips. The I-V protocol was applied several times to establish the response in control conditions (typically 0.3% DMSO) and in the presence of the test compound.
Data were reviewed in Sophion Analyser version 6.5.2 (Sophion Bioscience) for recording quality and filters were applied to remove any failed wells. Leak subtraction was applied to all recordings. Data filters for multihole QChips were typically: seal resistance>4 MΩ, capacitance >20 pF, baseline VHalf between 0 to −40 mV, baseline holding current between −2 to 2 nA, baseline steady state current at 20 mV >4 nA unless otherwise stated.
Analysis of Data for Assessment of Potency
10 concentrations of test compounds were applied to individual wells in quadruplicate to assess potency as a 1 in 3 dilution series from the maximal concentration of 30 μM. The average shift in the voltage for half activation (Vhalf) for each concentration was used to generate concentration-response curves fitted with a 4-parameter logistic model to estimate the EC50 from the point of inflection of the curve and the maximal shift in the Vhalf from the top of the curve.
The lower the EC50 value, the higher the potency of the analyzed compound. The selectivity criteria is assigned on the basis of the maximal shift in the Vhalf at 30 μM. […] In Table 3, ND means that selectivity was not determined.

EC50 | Kv7.2/7.3 ΔV1/2 | SMILES
1.83 µM | 22.4 mV | C[C@@H](NC(=O)NCc1ccnc(OCC(F)(F)F)c1)c1ccc2c(c1)OC(F)(F)O2 [Compound 226]
> 30 µM | 49.96 mV | O=C(NCc1ccnc(OCC(F)(F)F)c1)N[C@H]1CN(CC(F)(F)F)C[C@@H]1c1ccccc1 [Compound 231]
3.43 µM | 37.09 mV | C[C@@H](Oc1cc(CNC(=O)N[C@H](C2CC2)C(F)(F)F)ncn1)C(F)(F)F [Compound 224]
3.2 µM | 35.15 mV | C[C@@H](Oc1cc(CNC(=O)N[C@@H]2COc3ccccc3C2)ncn1)C(F)(F)F [Compound 221]
8 µM | 21.41 mV | O=C(NCc1ccnc(OCC(F)(F)F)c1)NC1(C(F)(F)F)COC1 [Compound 218]
1.86 µM | 31.71 mV | C[C@@H](NC(=O)NCc1ccnc(OCC(F)(F)F)c1)c1cccc2c1OC(F)(F)O2 [Compound 227]
3.32 µM | 36.71 mV | COc1cccc(N2C[C@H](NC(=O)NCc3ccnc(OCC(F)(F)F)c3)C(F)(F)C2)c1 [Compound 241]
2.52 µM | 28.00 mV | COc1ccc([C@H](NC(=O)NCc2ccnc(OCC(F)(F)F)c2)C(F)(F)F)cc1 [Compound 233]
11.8 µM | 29.83 mV | O=C(NCc1ccnc(OCC(F)(F)F)c1)N[C@H]1COC[C@H]1c1ccc(F)cc1 [Compound 220]
6.41 µM | 42.13 mV | C[C@@H](Oc1cc(CNC(=O)N[C@@H]2CCOc3cc(F)ccc32)ncn1)C(F)(F)F [Compound 225]
2.61 µM | 23.91 mV | O=C(NCc1ccnc(OCC(F)(F)F)c1)NCc1ccnc(OCC(F)(F)F)c1 [Compound 248]
1.76 µM | 29.44 mV | C#CCOc1cc(CNC(=O)N[C@@H]2CCCc3c(F)cccc32)ccn1 [Compound 217]
4.16 µM | 28.1 mV | O=C(NCc1ccnc(OCC(F)(F)F)c1)N[C@@H]1COC[C@H]1Oc1cccc(F)c1 [Compound 222]
6.22 µM | 21.79 mV | O=C(NCc1ccnc(OCC(F)(F)F)c1)N[C@@H]1COC2(CC2)C1 [Compound 235]
12.7 µM | 76.14 mV | O=C(NCc1ccnc(OCC(F)(F)F)c1)N[C@@H]1COC[C@H]1c1ccc(F)cc1 [Compound 229]
2.98 µM | 34.51 mV | O=C(NCc1ccnc(OCC(F)(F)F)c1)N[C@@H]1CCO[C@H]1c1ccc(F)cc1 [Compound 242]
2.19 µM | 46.39 mV | O=C(NCc1ccnc(OCC(F)(F)F)c1)N[C@@H]1CCO[C@H](c2ccc(F)cc2)C1 [Compound 245]
11.7 µM | 46.27 mV | O=C(NCc1ccnc(OCC(F)(F)F)c1)N[C@H]1COC2(CC2)C1 [Compound 240]
2.91 µM | 24.31 mV | C[C@@H](NC(=O)NCc1ccnc(OCC(F)(F)F)c1)c1ccc(OC(F)(F)F)cc1 [Compound 238]
5.05 µM | 24.56 mV | Cc1cnc(COc2cc(CNC(=O)NCCC3(C(F)(F)F)CC3)ccn2)o1 [Compound 247]
3.73 µM | 26.56 mV | O=C(NCc1ccnc(OCC(F)(F)F)c1)N[C@@H]1COC[C@H]1Oc1ccccc1F [Compound 243]
7.59 µM | 26.21 mV | C[C@@H](Oc1cc(CNC(=O)NCC23CC(F)(C2)C3)ncn1)C(F)(F)F [Compound 244]

Second part, the molecule before the results:

SMILES | EC50 | Kv7.2/7.3 ΔV1/2
O=C(NCc1ccnc(OCC(F)(F)F)c1)N[C@@H]1CCCc2cc(F)ccc21 [Compound 191] | 1.17 µM | 46.54 mV
O=C(NCc1ccnc(OCC(F)(F)F)c1)N[C@H]1COc2ccccc2C1 [Compound 187] | 2.33 µM | 21.99 mV
O=C(NCc1ccnc(OCC(F)(F)F)c1)N[C@@H]1CCOc2cc(F)ccc21 [Compound 204] | 0.98 µM | 38.78 mV
O=C(NCc1ccnc(OCC(F)(F)F)c1)N[C@@H]1CCc2sccc21 [Compound 172] | 1.98 µM | 55.13 mV
COc1cccc2c1CCC[C@H]2NC(=O)NCc1ccnc(OCC(F)(F)F)c1 [Compound 183] | 2.49 µM | 43.65 mV
C[C@@H](Oc1cc(CNC(=O)N[C@@H]2CCOc3ccccc32)ncn1)C(F)(F)F [Compound 205] | 7.09 µM | 40.29 mV
O=C(NCc1ccnc(OCC(F)(F)F)c1)N[C@H]1CCSc2ccccc21 [Compound 175] | 1.22 µM | 20.52 mV
C[C@@H](Oc1cc(CNC(=O)N[C@@H]2CCOc3ccc(F)cc32)ncn1)C(F)(F)F [Compound 206] | 6.78 µM | 33.98 mV
COc1ccc2c(c1)[C@H](NC(=O)NCc1cc(O[C@H](C)C(F)(F)F)ncn1)CCO2 [Compound 209] | 9.7 µM | 37.49 mV
O=C(NCc1ccnc(OCC(F)(F)F)c1)N[C@H]1CSc2ccccc2C1 [Compound 173] | 0.33 µM | 31.15 mV
Cc1cccc2c1[C@H](NC(=O)NCc1ccnc(OCC(F)(F)F)c1)CC2 [Compound 168] | 2.24 µM | 37.25 mV
O=C(NCc1ccnc(OCC(F)(F)F)c1)N[C@@H]1COc2c(F)cccc21 [Compound 199] | 1.82 µM | 36.36 mV
Cc1cccc2c1OCC[C@H]2NC(=O)NCc1ccnc(OCC(F)(F)F)c1 [Compound 184] | 1.23 µM | 42.17 mV
O=C(NCc1ccnc(OCC(F)(F)F)c1)N[C@@H]1CCCc2c(F)cccc21 [Compound 216] | 1.4 µM | 49.32 mV
COc1cccc(N2CC[C@@H](NC(=O)NCc3ccnc(OCC(F)(F)F)c3)C2)c1 [Compound 194] | 2.58 µM | 29.55 mV
O=C(NCc1ccnc(OCC(F)(F)F)c1)NC[C@H]1COc2ccccc2C1 [Compound 201] | 2.22 µM | 27.95 mV
O=C(NCc1ccnc(OCC(F)(F)F)c1)N[C@@H]1CCC[C@H]1c1ccc(F)cc1 [Compound 188] | 0.47 µM | 28.3 mV
O=C(NCc1ccc(OC(F)(F)F)cc1)NCc1ccnc(OCC(F)(F)F)c1 [Compound 211] | 3.13 µM | 22.62 mV
C[C@@H](Oc1cc(CNC(=O)N[C@@H]2COc3ccccc32)ncn1)C(F)(F)F [Compound 207] | 10.2 µM | 23.90 mV
COc1ccccc1N1CC[C@@H](NC(=O)NCc2ccnc(OCC(F)(F)F)c2)C1 [Compound 202] | 4.34 µM | 26.02 mV
O=C(NCc1ccnc(OCC(F)(F)F)c1)N[C@H]1CCO[C@@H]1c1ccccc1 [Compound 197] | 7.62 µM | 39.86 mV
COc1ccc2c(c1)CCC[C@@H]2NC(=O)NCc1ccnc(OCC(F)(F)F)c1 [Compound 178] | 8.11 µM | 27.73 mV
O=C(NCc1ccnc(OCC(F)(F)F)c1)N[C@H]1CC[C@@H](c2ccccc2F)C1 [Compound 198] | 1.37 µM | 76.04 mV
O=C(NCc1ccnc(OCC(F)(F)F)n1)N[C@@H]1CCCc2ccccc21 [Compound 180] | 5.83 µM | 24.71 mV
O=C(NCc1ccnc(OCC(F)(F)F)c1)N[C@@H]1CCOc2c(F)cccc21 [Compound 179] | 2 µM | 33.61 mV
COc1ccc2c(c1)CCC[C@H]2NC(=O)NCc1ccnc(OCC(F)(F)F)c1 [Compound 177] | 2.28 µM | 54.8 mV
CC1(C)C[C@H](NC(=O)NCc2ccnc(OCC(F)(F)F)c2)c2ccccc21 [Compound 193] | 0.52 µM | 23.15 mV
